{
  "source": "PubChem BioAssay AID1259409",
  "about": "(Chemical Carcinogenesis Research Information System (CCRIS), 2018)",
  "origin": "cited, not measured here",
  "test_system": "rodent chemically induced tumor inhibition, incidence and multiplicity",
  "experiment": "CCRIS tumor inhibitor studies",
  "data": [
    {"compound": "CC1=C(/C=C/C(C)=C/C=C/C(C)=C/C(=O)Nc2ccc(O)cc2)C(C)(C)CCC1", "values": [
      {"measurement": "tumour outcome (control, treated, inhibition, significance)", "setting": "Carcinogen: N-METHYL-N-NITROSOUREA, 684-93-5, Dose [Inhibitor]: 2 MMOL/KG DIET DAILY STARTING 12 D AFTER CARCINOGEN TREATMENT THROUGH ABOUT 8 MO AFTER CARCINOGEN DOSE (STUDY DURATION:, Route [Inhibitor]: ORAL, Species: RAT, Strain/Sex: F344/MALE, Target Tissue: Type of Lesion: COLON: ADENOMA, Dose [Carcinogen]: 2.5 MG 1/WK FOR 2 WK, Promoter: NONE USED", "value": "16/39 (41%), 11/30 (37%), 10%, not significant"},
      {"measurement": "tumour outcome (control, treated, inhibition, significance)", "setting": "Carcinogen: N-METHYL-N-NITROSOUREA, 684-93-5, Dose [Inhibitor]: 587 MG/KG DIET FROM D 7-20 AFTER CARCINOGEN ADMINISTRATION THEN REDUCED TO 391 MG/KG DIET FOR REMAINDER OF STUDY (STUDY, Route [Inhibitor]: ORAL, Species: RAT, Strain/Sex: SPRAGUE-DAWLEY/FEMALE, Target Tissue: Type of Lesion: MAMMARY GLAND: ADENOCARCINOMA, Dose [Carcinogen]: 20 MG/KG BW ONCE, Promoter: NONE USED", "value": "64%, 50%, 22%, not significant"},
      {"measurement": "tumour outcome (control, treated, inhibition, significance)", "setting": "Carcinogen: N-METHYL-N-NITROSOUREA, 684-93-5, Dose [Inhibitor]: 587 MG/KG IN DIET FROM D 7-20 AFTER CARCINOGEN DOSE THEN REDUCED TO 391 MG/KG IN DIET FOR REMAINDER OF STUDY (STUDY DURA, Route [Inhibitor]: ORAL, Species: RAT, Strain/Sex: SPRAGUE-DAWLEY/FEMALE, Target Tissue: Type of Lesion: MAMMARY GLAND: ADENOCARCINOMA, Dose [Carcinogen]: 20 MG/KG BW ONCE, Promoter: NONE USED", "value": "64%, 50%, 22%, not significant"},
      {"measurement": "tumour outcome (control, treated, inhibition, significance)", "setting": "Carcinogen: N-METHYL-N-NITROSOUREA, 684-93-5, Dose [Inhibitor]: O.O3 MMOL 3/WK STARTING 12 D THROUGH ABOUT 8 MO AFTER FIRST CARCINOGEN DOSE (STUDY DURATION: APPROXIMATELY 8 MO), Route [Inhibitor]: INTRARECTAL, Species: RAT, Strain/Sex: F344/MALE, Target Tissue: Type of Lesion: COLON: ADENOCARCINOMA, Dose [Carcinogen]: 2.5 MG 1/WK FOR 2 WK, Promoter: NONE USED", "value": "3/39 (8%), 6/39 (15%), -88%, not significant"},
      {"measurement": "tumour outcome (control, treated, inhibition, significance)", "setting": "Carcinogen: N-METHYL-N-NITROSOUREA, 684-93-5, Dose [Inhibitor]: O.O3 MMOL 3/WK STARTING 12 D THROUGH ABOUT 8 MO AFTER FIRST CARCINOGEN DOSE (STUDY DURATION: APPROXIMATELY 8 MO), Route [Inhibitor]: INTRARECTAL, Species: RAT, Strain/Sex: F344/MALE, Target Tissue: Type of Lesion: COLON: ADENOMA, Dose [Carcinogen]: 2.5 MG 1/WK FOR 2 WK, Promoter: NONE USED", "value": "11/39 (28%), 23/39 (59%), -111%, p<0.05"},
      {"measurement": "tumour outcome (control, treated, inhibition, significance)", "setting": "Carcinogen: N-METHYL-N-NITROSOUREA, 684-93-5, Dose [Inhibitor]: O.O3 MMOL 3/WK STARTING 15 D PRIOR TO THROUGH ABOUT 8 MO AFTER FIRST CARCINOGEN DOSE (STUDY DURATION: APPROXIMATELY 8 MO, Route [Inhibitor]: INTRARECTAL, Species: RAT, Strain/Sex: F344/MALE, Target Tissue: Type of Lesion: COLON: ADENOCARCINOMA, Dose [Carcinogen]: 2.5 MG 1/WK FOR 2 WK, Promoter: NONE USED", "value": "3/39 (8%), 5/39 (13%), -63%, not significant"},
      {"measurement": "tumour outcome (control, treated, inhibition, significance)", "setting": "Carcinogen: N-METHYL-N-NITROSOUREA, 684-93-5, Dose [Inhibitor]: O.O3 MMOL 3/WK STARTING 15 D PRIOR TO THROUGH ABOUT 8 MO AFTER FIRST CARCINOGEN DOSE (STUDY DURATION: APPROXIMATELY 8 MO, Route [Inhibitor]: INTRARECTAL, Species: RAT, Strain/Sex: F344/MALE, Target Tissue: Type of Lesion: COLON: ADENOMA, Dose [Carcinogen]: 2.5 MG 1/WK FOR 2 WK, Promoter: NONE USED", "value": "11/39 (28%), 14/39 (36%), -29%, not significant"},
      {"measurement": "tumour outcome (control, treated, inhibition, significance)", "setting": "Carcinogen: N-METHYL-N-NITROSUREA, 684-93-5, Dose [Inhibitor]: 0, 782 MG/KG OF CASEIN BASED AIN-76A DIET FOR DURATION OF STUDY BEGINNING 7 D PRIOR TO CARCINOGEN DOSE (STUDY DURATION:, Route [Inhibitor]: ORAL, Species: RAT, Strain/Sex: F344/FEMALE, Target Tissue: Type of Lesion: MAMMARY GLAND: TUMOR, Dose [Carcinogen]: 45 MG/KG BW ONCE AT 50 D OF AGE, Promoter: NONE USED", "value": "18/25 (72%), 21/25 (84%), -17%, not significant"},
      {"measurement": "tumour outcome (control, treated, inhibition, significance)", "setting": "Carcinogen: N-NITROSOBIS(2-OXOPROPLYL)AMINE [60599-38-4], DL-ETHIONINE [67-21-0], L-METHIONINE [63-68-3], Carcinogen: N-NITROSOBIS(2-OXOPROPLYL)AMINE [60599-38-4], DL-ETHIONINE [67-21-0], L-METHIONINE [63-68-3], Dose [Inhibitor]: 0, 0.0015% IN DIET FOR 55 D BEGINNING ON DAY 50, 1 WK POST LAST CARCINOGEN DOSE (STUDY DURATION: 105 D), Route [Inhibitor]: ORAL, Species: HAMSTER, Target Tissue: Type of Lesion: LIVER: INTRAHEPATIC CHOLANGIOCARCINOMA, Dose [Carcinogen]: 50 MG/KG BOP ONCE ON DAY 0, THEN 20 MG/KG TWICE ON DAYS 18 AND 32, 500 MG/KG DL-ETHIONINE 1X/D FOR 4 D BEGINNING ON DAY, Dose [Carcinogen]: 50 MG/KG BOP ONCE ON DAY 0, THEN 20 MG/KG TWICE ON DAYS 18 AND 32, 500 MG/KG DL-ETHIONINE 1X/D FOR 4 D BEGINNING ON DAY, Promoter: CHOLINE-DEFICIENT DIET", "value": "7/17 (41%), 8/16 (50%), -22%, not significant"},
      {"measurement": "tumour outcome (control, treated, inhibition, significance)", "setting": "Carcinogen: N-NITROSOBIS(2-OXOPROPLYL)AMINE [60599-38-4], DL-ETHIONINE [67-21-0], L-METHIONINE [63-68-3], Carcinogen: N-NITROSOBIS(2-OXOPROPLYL)AMINE [60599-38-4], DL-ETHIONINE [67-21-0], L-METHIONINE [63-68-3], Dose [Inhibitor]: 0, 0.0015% IN DIET FOR 55 D BEGINNING ON DAY 50, 1 WK POST LAST CARCINOGEN DOSE (STUDY DURATION: 105 D), Route [Inhibitor]: ORAL, Species: HAMSTER, Target Tissue: Type of Lesion: PANCREATIC DUCT, CARCINOMA, Dose [Carcinogen]: 50 MG/KG BOP ONCE ON DAY 0, THEN 20 MG/KG TWICE ON DAYS 18 AND 32, 500 MG/KG DL-ETHIONINE 1X/D FOR 4 D BEGINNING ON DAY, Dose [Carcinogen]: 50 MG/KG BOP ONCE ON DAY 0, THEN 20 MG/KG TWICE ON DAYS 18 AND 32, 500 MG/KG DL-ETHIONINE 1X/D FOR 4 D BEGINNING ON DAY, Promoter: CHOLINE-DEFICIENT DIET", "value": "17/17 (100%), 15/16 (94%), 6%, not significant"},
      {"measurement": "tumour outcome (control, treated, inhibition, significance)", "setting": "Carcinogen: N-NITROSOBIS(2-OXOPROPLYL)AMINE [60599-38-4], DL-ETHIONINE [67-21-0], L-METHIONINE [63-68-3], Carcinogen: N-NITROSOBIS(2-OXOPROPLYL)AMINE [60599-38-4], DL-ETHIONINE [67-21-0], L-METHIONINE [63-68-3], Dose [Inhibitor]: 0, 0.004% IN DIET FOR 55 D BEGINNING ON DAY 50, 1 WK POST LAST CARCINOGEN DOSE (STUDY DURATION: 105 D), Route [Inhibitor]: ORAL, Species: HAMSTER, Target Tissue: Type of Lesion: LIVER: INTRAHEPATIC CHOLANGIOCARCINOMA, Dose [Carcinogen]: 50 MG/KG BOP ONCE ON DAY 0, THEN 20 MG/KG TWICE ON DAYS 18 AND 32, 500 MG/KG DL-ETHIONINE 1X/D FOR 4 D BEGINNING ON DAY, Dose [Carcinogen]: 50 MG/KG BOP ONCE ON DAY 0, THEN 20 MG/KG TWICE ON DAYS 18 AND 32, 500 MG/KG DL-ETHIONINE 1X/D FOR 4 D BEGINNING ON DAY, Promoter: CHOLINE-DEFICIENT DIET", "value": "7/17 (41%), 13/19 (68%), -68%, not significant"},
      {"measurement": "tumour outcome (control, treated, inhibition, significance)", "setting": "Carcinogen: N-NITROSOBIS(2-OXOPROPLYL)AMINE [60599-38-4], DL-ETHIONINE [67-21-0], L-METHIONINE [63-68-3], Carcinogen: N-NITROSOBIS(2-OXOPROPLYL)AMINE [60599-38-4], DL-ETHIONINE [67-21-0], L-METHIONINE [63-68-3], Dose [Inhibitor]: 0, 0.004% IN DIET FOR 55 D BEGINNING ON DAY 50, 1 WK POST LAST CARCINOGEN DOSE (STUDY DURATION: 105 D), Route [Inhibitor]: ORAL, Species: HAMSTER, Target Tissue: Type of Lesion: PANCREATIC DUCT, CARCINOMA, Dose [Carcinogen]: 50 MG/KG BOP ONCE ON DAY 0, THEN 20 MG/KG TWICE ON DAYS 18 AND 32, 500 MG/KG DL-ETHIONINE 1X/D FOR 4 D BEGINNING ON DAY, Dose [Carcinogen]: 50 MG/KG BOP ONCE ON DAY 0, THEN 20 MG/KG TWICE ON DAYS 18 AND 32, 500 MG/KG DL-ETHIONINE 1X/D FOR 4 D BEGINNING ON DAY, Promoter: CHOLINE-DEFICIENT DIET", "value": "17/17 (100%), 19/19 (100%), 0%, not significant"},
      {"measurement": "tumour outcome (control, treated, inhibition, significance)", "setting": "Carcinogen: N-NITROSOBIS(2-OXOPROPLYL)AMINE [60599-38-4], DL-ETHIONINE [67-21-0], L-METHIONINE [63-68-3], Carcinogen: N-NITROSOBIS(2-OXOPROPLYL)AMINE [60599-38-4], DL-ETHIONINE [67-21-0], L-METHIONINE [63-68-3], Dose [Inhibitor]: 0, 0.01% IN DIET FOR 55 D BEGINNING ON DAY 50, 1 WK POST LAST CARCINOGEN DOSE (STUDY DURATION: 105 D), Route [Inhibitor]: ORAL, Species: HAMSTER, Target Tissue: Type of Lesion: LIVER: INTRAHEPATIC CHOLANGIOCARCINOMA, Dose [Carcinogen]: 50 MG/KG BOP ONCE ON DAY 0, THEN 20 MG/KG TWICE ON DAYS 18 AND 32, 500 MG/KG DL-ETHIONINE 1X/D FOR 4 D BEGINNING ON DAY, Dose [Carcinogen]: 50 MG/KG BOP ONCE ON DAY 0, THEN 20 MG/KG TWICE ON DAYS 18 AND 32, 500 MG/KG DL-ETHIONINE 1X/D FOR 4 D BEGINNING ON DAY, Promoter: CHOLINE-DEFICIENT DIET", "value": "7/17 (41%), 14/17 (82%), -100%, p<0.05"}
    ]}
  ]
}
